From US20130012483A1, “NOVEL PHARMACEUTICAL COMPOSITION FOR THE TREATMENT OF NEURODEGENERATIVE OR NEUROVASCULAR DISEASES” (priority 2010, published 2013)

Test system: elderly patients suffering from Alzheimer disease or related disorders (ADRD)
Assay: Before-after clinical study: change in global cognitive performance by Mini-Mental State Examination (MMSE)
Type: in vivo, human
Details: for Change in MMSE score, mean ± SD (MMSE score after treatment − MMSE score before treatment): between-visits change, oral treatment; for MMSE score (/30 points), mean ± SD after treatment: first follow-up visit, oral vitamin D3 800-3500 IU per day and/or memantine 5-20 mg per day, mean time between visits 0.6±0.4 years
Method: Based on a before-after designed study, we compared the change in global cognitive performance using the Mini-Mental State Examination (MMSE) among elderly patients suffering from Alzheimer disease or related disorders (ADRD).
Three different treatments were administered to these patients: • vitamin D3 alone, • memantine alone, • vitamin D3 in combination with memantine.
All patients suffering from ADRD who were prescribed memantine and/or vitamin D3 with no cerebral vasodilatators and no anticholinesterasics (i.e., donepezil, galantamine or rivastigmine) at the University Memory Center of Angers University Hospital, France and who had at least one follow-up visit, were enrolled in this study.
The MMSE score was used to assess global cognitive performance during the study and was completed at baseline (i.e., before the drug prescription) and during the first follow-up visit. MMSE is a well-established measure of cognitive function in elderly people (see for example Folstein M F, Folstein S E, et al., Mini-Mental State: A practical method for grading the cognitive state of patients for the clinician; Journal of Psychiatric Research 1975; 12: 189-198; or Kalafat L, Hugonot-Diener L, Poitrenaud J., Standardisation et étalonnage français du<<Mini Mental State>>version Greco; Neuropsychol Rev 2003; 13: 209-236). It is a brief, practical screening test for cognitive dysfunction composed of five sections (orientation, registration, attention—calculation, recall, and language). […] Scores range from 30 (unimpaired) to 0 (impaired). The change in MMSE score was used to assess the change in cognitive performance after the introduction of the drug(s).
Subjects were prescribed either vitamin D3 alone, memantine alone, or Vitamin D3 in combination with memantine.
Vitamin D3 was administered orally either daily or monthly. Dosage of vitamin D3 ranges between 800 and 3500 IU per day.
Memantine was administered orally every day at once. Dosage ranges from 5 to 20 mg per day.
Age, gender, the MMSE score at baseline assessment as well as the time between two visits expressed in years (corresponding to the duration of treatment) were used as co-variables.
The subjects' baseline characteristics were summarized using means and standard deviations or frequencies and percentages, as appropriate. First, comparisons between subjects separated into three groups corresponding to the three treatments administered (i.e., vitamin D3 alone, memantine alone and Vitamin D3 in combination with memantine) were performed using the Chi-square test or the Kruskal-Wallis test, as appropriate. To address the problem of multiple comparisons, analyses were completed by a post hoc Bonferonni test.
Second, multiple linear regression analyses (i.e., fully adjusted method) were performed to examine the association between the change in MMSE score (dependent variable) and the use of vitamin D3 in combination with memantine (independent variable), after adjustment for clinical characteristics.
Three models were performed: • first, we examined the between-visits change in MMSE score taking as reference group the subjects using vitamin D3 alone; • second, we performed the same analysis taking as reference group the subjects using memantine alone; and • third, taking as reference group the subjects using vitamin D3 or memantine.

Row | SMILES | Change in MMSE score, mean ± SD (MMSE score after treatment − MMSE score before treatment) | Change in MMSE score, mean ± SD (MMSE score after treatment − MMSE score before treatment) (listed as memantine) | MMSE score (/30 points), mean ± SD after treatment | points lost in MMSE score on average (between visits, printed as a loss)
1 | CC12CC3CC(C)(C1)CC(N)(C3)C2 [M., 3,5-dimethyltricyclo[3.3.1.1]decylamine] | −0.0 ± 1.8 points | 0.0±1.8 points | 16.1 ± 5.1 points | 
2 | C=C1CC[C@H](O)C/C1=C/C=C1\CCC[C@]2(C)[C@@H]([C@H](C)CCCC(C)C)CC[C@@H]12 [V. D3, cholecalciferol] | −0.6 ± 3.1 points |  | 17.7 ± 6.5 points | 0.6±3.1 points
